# Tested on: KRAS-mutant PDC complex spheroid viability
# Experiment: Anticancer human tumor 186277-243-T-J2-PDC patient-derived colon adenocarcinoma cell line growth inhibition [KRAS2]
# Details: for viability, T/C: stronger effect = lower value
# Summary of the method: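 KRAS-mutant tumor cells were grown as spheroids with HUVEC endothelial cells and human MSCs as stroma. Targeted agents were tested alone and with KRAS pathway inhibitors. Doses started at or near clinical Cmax, or 10 microM, descending half-log.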
# [1] = curve of first compound, second compound 0.1 µM
# [2] = curve of first compound, second compound 0.316 µM
# [3] = curve of first compound, second compound 1 µM
# [4] = curve of first compound, second compound 3.16 µM
# [5] = curve of first compound, second compound 10 µM
# [6] = second compound 0.1 µM, first compound 0.0316 µM
# [7] = second compound 0.1 µM, first compound 0.1 µM
# [8] = second compound 0.316 µM, first compound 0.0316 µM
# [9] = second compound 0.316 µM, first compound 0.1 µM
# [10] = second compound 1 µM, first compound 0.0316 µM
# [11] = second compound 1 µM, first compound 0.1 µM
# [12] = second compound 3.16 µM, first compound 0.0316 µM
# [13] = second compound 3.16 µM, first compound 0.1 µM
# [14] = second compound 10 µM, first compound 0.0316 µM
# [15] = second compound 10 µM, first compound 0.1 µM
# 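Wherever viability, T/C is given: viability read after seven days of compound exposure; 100% = DMSO vehicle-treated spheroids so lower means less viable.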
structure (smiles),measurement,setting,value
COC(=O)c1ccc2c(C(=Nc3ccc(N(C)C(=O)CN4CCN(C)CC4)cc3)c3ccccc3)c(O)[nH]c2c1 + CNCc1ccccc1-c1csc(C(C)Nc2nc(C)nc3cc(OC)c(OC)cc23)c1,IC50,[1],1840 nM
same,IC50,[2],1140 nM
same,IC50,[3],727 nM
same,IC50,[4],< 31.6 nM
same,IC50,[5],< 31.6 nM
same,"viability, T/C",[6],97.4%
same,"viability, T/C",[7],94.1%
same,"viability, T/C","second compound 0.1 µM, first compound 0.316 µM",120%
same,"viability, T/C","second compound 0.1 µM, first compound 1 µM",92.6%
same,"viability, T/C","second compound 0.1 µM, first compound 3.16 µM",12.3%
same,"viability, T/C","second compound 0.1 µM, first compound 10 µM",6.55%
same,"viability, T/C",[8],101%
same,"viability, T/C",[9],102%
same,"viability, T/C","second compound 0.316 µM, first compound 0.316 µM",105%
same,"viability, T/C","second compound 0.316 µM, first compound 1 µM",56.5%
same,"viability, T/C","second compound 0.316 µM, first compound 3.16 µM",0.86%
same,"viability, T/C","second compound 0.316 µM, first compound 10 µM",1.8%
same,"viability, T/C",[10],104%
same,"viability, T/C",[11],109%
same,"viability, T/C","second compound 1 µM, first compound 0.316 µM",101%
same,"viability, T/C","second compound 1 µM, first compound 1 µM",30.5%
same,"viability, T/C","second compound 1 µM, first compound 3.16 µM",0.19%
same,"viability, T/C","second compound 1 µM, first compound 10 µM",0.16%
same,"viability, T/C",[12],25.5%
same,"viability, T/C",[13],20.5%
same,"viability, T/C","second compound 3.16 µM, first compound 0.316 µM",0.12%
same,"viability, T/C","second compound 3.16 µM, first compound 1 µM",0.06%
same,"viability, T/C","second compound 3.16 µM, first compound 3.16 µM",0.03%
same,"viability, T/C","second compound 3.16 µM, first compound 10 µM",0.1%
same,"viability, T/C",[14],0.13%
same,"viability, T/C",[15],0.12%
same,"viability, T/C","second compound 10 µM, first compound 0.316 µM",0.1%
same,"viability, T/C","second compound 10 µM, first compound 1 µM",0.08%
same,"viability, T/C","second compound 10 µM, first compound 3.16 µM",0.09%
same,"viability, T/C","second compound 10 µM, first compound 10 µM",0.14%
CC(C)n1nc(-c2ccc3oc(N)nc3c2)c2c(N)ncnc21 + CNCc1ccccc1-c1csc(C(C)Nc2nc(C)nc3cc(OC)c(OC)cc23)c1,IC50,[1],5.68 nM
same,IC50,[2],4.02 nM
same,IC50,[3],5.06 nM
same,IC50,[4],1.17 nM
same,IC50,[5],< 0.316 nM
same,"viability, T/C","second compound 0.1 µM, first compound 0.000316 µM",108%
same,"viability, T/C","second compound 0.1 µM, first compound 0.001 µM",92.5%
same,"viability, T/C","second compound 0.1 µM, first compound 0.00316 µM",57%
same,"viability, T/C","second compound 0.1 µM, first compound 0.01 µM",40.3%
same,"viability, T/C",[6],28.6%
same,"viability, T/C",[7],16.6%
same,"viability, T/C","second compound 0.316 µM, first compound 0.000316 µM",98.8%
same,"viability, T/C","second compound 0.316 µM, first compound 0.001 µM",80.8%
same,"viability, T/C","second compound 0.316 µM, first compound 0.00316 µM",54.7%
same,"viability, T/C","second compound 0.316 µM, first compound 0.01 µM",32.9%
same,"viability, T/C",[8],23.4%
same,"viability, T/C",[9],19.7%
same,"viability, T/C","second compound 1 µM, first compound 0.000316 µM",96.3%
same,"viability, T/C","second compound 1 µM, first compound 0.001 µM",88.8%
same,"viability, T/C","second compound 1 µM, first compound 0.00316 µM",55.8%
same,"viability, T/C","second compound 1 µM, first compound 0.01 µM",37.7%
same,"viability, T/C",[10],22.9%
same,"viability, T/C",[11],14.9%
same,"viability, T/C","second compound 3.16 µM, first compound 0.000316 µM",63.9%
same,"viability, T/C","second compound 3.16 µM, first compound 0.001 µM",55.9%
same,"viability, T/C","second compound 3.16 µM, first compound 0.00316 µM",14%
same,"viability, T/C","second compound 3.16 µM, first compound 0.01 µM",16.8%
same,"viability, T/C",[12],8.24%
same,"viability, T/C",[13],1.61%
same,"viability, T/C","second compound 10 µM, first compound 0.000316 µM",0.14%
same,"viability, T/C","second compound 10 µM, first compound 0.001 µM",0.13%
same,"viability, T/C","second compound 10 µM, first compound 0.00316 µM",0.11%
same,"viability, T/C","second compound 10 µM, first compound 0.01 µM",0.1%
same,"viability, T/C",[14],0.1%
same,"viability, T/C",[15],0.16%
CC1(C)CCC(CN2CCN(c3ccc(C(=O)NS(=O)(=O)c4ccc(NCC5CCOCC5)c([N+](=O)[O-])c4)c(Oc4cnc5[nH]ccc5c4)c3)CC2)=C(c2ccc(Cl)cc2)C1,"viability, T/C",compound 0.0316 µM,97.6% [middle of 5 runs]
same,"viability, T/C",compound 0.1 µM,93.7% [middle of 5 runs]
same,"viability, T/C",compound 0.316 µM,104% [middle of 5 runs]
same,"viability, T/C",compound 1 µM,98.1% [middle of 5 runs]
same,"viability, T/C",compound 3.16 µM,22.7% [middle of 5 runs]
same,"viability, T/C",compound 10 µM,4.85% [middle of 5 runs]
same,IC50,curve of compound,2.07 µM [middle of 5 runs]
